This assay concerns the target T1, trypsin-activated recombinant human renin (Homo sapiens, UniProt P00797).
T1 sequence (P00797 67-406): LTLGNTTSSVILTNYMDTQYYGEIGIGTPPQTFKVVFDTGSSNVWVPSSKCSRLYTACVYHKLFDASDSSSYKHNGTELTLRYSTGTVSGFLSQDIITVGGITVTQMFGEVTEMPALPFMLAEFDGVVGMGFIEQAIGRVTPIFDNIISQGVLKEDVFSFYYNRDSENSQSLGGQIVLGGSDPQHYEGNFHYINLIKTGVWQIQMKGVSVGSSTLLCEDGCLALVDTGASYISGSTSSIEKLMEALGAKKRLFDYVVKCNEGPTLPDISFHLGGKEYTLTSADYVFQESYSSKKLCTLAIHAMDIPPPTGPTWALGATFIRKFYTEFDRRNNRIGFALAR
The assay is described as follows: In vitro IC50 for renin, fluorescence increase of internally quenched peptide substrate (protocol of Example 2). In kind it is biochemical. Particulars: protocol described in Example 2; DABCYL/EDANS peptide substrate, pH 7.0, rt. The procedure:
The sequence of this peptide corresponds to the sequence of human angiotensinogen. The following test protocol is used: All reactions are carried out in a flat bottom white opaque microtiter plate. A 4 μL aliquot of 400 μM renin substrate (DABCYL-γ-Abu-Ile-His-Pro-Phe-His-Leu-Val-Ile-His-Thr-EDANS) in 192 μL assay buffer (50 mM BES, 150 mM NaCl, 0.25 mg/mL bovine serum albumin, pH7.0) is added to 4 μL of test compound in DMSO at various concentrations ranging from 10 μM to 1 nM final concentrations. Next, 100 μL of trypsin-activated recombinant human renin (final enzyme concentration of 0.2-2 nM) in assay buffer is added, and the solution is mixed by pipetting. The increase in fluorescence at 495 nm (excitation at 340 nm) is measured for 60-360 min at rt using a Perkin-Elmer Fusion microplate reader. The slope of a linear portion of the plot of fluorescence increase as a function of time is then determined, and the rate is used for calculating percent inhibition in relation to uninhibited control. […] The IC50 is defined as the concentration of a particular inhibitor that reduces the formation of product by 50% relative to a control sample containing no inhibitor. (Wang G. T. et al. Anal. Biochem. 1993, 210, 351; Nakamura, N. et al. J. Biochem. (Toko) 1991, 109, 741; Murakaini, K. et al. Anal Biochem. 1981, 110, 232).

We go through 1 compound from patent US7858624B2, “Piperidine and morpholine renin inhibitors” (Vitae Pharmaceuticals, Inc., priority 2006, dated 2010).

In general, pIC50 refers to the negative decadic logarithm of the IC50, by convention in mol/L.

SMILES strings stand for the structures. pIC50: −log10 of the molar value.

Consider `CCCCNC(=O)C[C@H](O)[C@H](CC1CCCCC1)NC(=O)N1CCC[C@@H]([C@@H](OCCNC(=O)OC)c2cccc(Cl)c2)C1` [Example 1, methyl 2-((R)-((R)-1-((2S,3S)-5-(butylamino)-1-cyclohexyl-3-hydroxy-5-oxopentan-2-ylcarbamoyl)piperidin-3-yl)(3-chlorophenyl)methoxy)ethylcarbamate], for which the negative logarithm of the IC50 (pIC50) was 6.95.
